Laboratory results taken from patent US20210070779A1, “BORON-CONTAINING SMALL MOLECULES AS ANTI-INFLAMMATORY AGENTS” (Anacor Pharmaceuticals, Inc., priority 2013, published 2021).
Where two headings read alike, the source gives them in different places.

Target: Human PDE4 (PDE4B2 truncated catalytic domain) (Homo sapiens, UniProt Q07343)
Assay: Measurement of Phosphodiesterase 4 (PDE4) inhibition, zinc and barium precipitation method
Assay type: biochemical
Protocol: Measurement of Phosphodiesterase 4 (PDE4) Inhibition
Human PDE4 enzymatic activity was assayed using the zinc and barium precipitation method of Saldou, N. et al (1998: Cell Signal, vol 10, No. 6, pp 427-440). The assay was performed in 96-well v-bottom plates (BrandPlates, Wertheim, Germany). PDE4B2 truncated is the catalytic domain including the UCR2 and a portion of the UCR1 domain of PDE4B2 (23.4 mg/mL) from Proteros Biostructures. Final concentration of enzyme in the assay was 0.3 pM. Stocks of the tested compounds were prepared in 100% DMSO at a concentration of 40 mM. The 100-μL reaction volume consisted of 45 mM Tris-HCl, pH 7.5, 12.5 mM MgSO4, 0.3 μM […] (Sigma, St Louis, Mo.) supplemented with 0.2 μM ^3H-cAMP (Perkin Elmer, Waltham, Mass.). Compounds were pre-incubated with enzyme at room temperature for 20 min prior to initiating the reaction by adding substrate (cAMP supplemented with ^3H-cAMP). After incubation at 30° C. for 6 minutes, the reaction was stopped by the addition of 50 μL fresh made 21.5 mM ZnSO4.7H2O (Alfa Aesar, Ward Hill, Mass.) containing 5 mM AMP as a co-precipitant. Total AMP was precipitated by the addition of 50 μL 17.5 mM Ba(OH)2, prepared fresh daily in water. The precipitate was transferred and collected by filtration onto a 96-well GF/B plate (Millipore, Ireland). The plates were washed five times with cold wash solution (1 mM NaOH, 100 mM NaCl) and dried at 65° C. The bottoms of plates were sealed with clear tapes (Millipore Co-operation, Billerica, Mass.) and 40 μL of scintillation cocktail (Perkin Elmer Waltham, Mass.). The plates were top sealed and radioactivity was measured with an Elmer Packard TopCount scintillation counter.

[1] = PDE4B2 truncated, 0.3 pM enzyme, 3H-cAMP substrate, 30° C. 6 minutes, read-out: PDE4 IC50

Human PDE4 (PDE4B2 truncated catalytic domain), sequence (Q07343 212-659): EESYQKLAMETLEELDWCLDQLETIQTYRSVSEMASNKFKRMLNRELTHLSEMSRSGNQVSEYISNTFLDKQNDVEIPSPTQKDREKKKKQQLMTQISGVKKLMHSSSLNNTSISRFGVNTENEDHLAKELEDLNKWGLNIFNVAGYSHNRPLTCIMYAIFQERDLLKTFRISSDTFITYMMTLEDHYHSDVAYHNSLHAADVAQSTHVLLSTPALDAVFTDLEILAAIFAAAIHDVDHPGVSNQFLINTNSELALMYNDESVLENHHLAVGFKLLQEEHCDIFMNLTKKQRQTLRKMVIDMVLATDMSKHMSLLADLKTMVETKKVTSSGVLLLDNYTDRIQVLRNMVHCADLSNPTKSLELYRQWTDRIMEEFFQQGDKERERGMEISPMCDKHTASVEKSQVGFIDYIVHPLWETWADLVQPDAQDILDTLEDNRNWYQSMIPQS

Compound | IC50 | IC50 [1]
N#Cc1ccc(C(=O)c2ccc3c(c2)COB3O)cc1 [A, 4-(1-hydroxy-1,3-dihydrobenzo[c][1,2]oxaborole-5-carbonyl)benzonitrile] | 504 nM | 
N#Cc1ccc(Cc2ccc3c(c2)COB3O)cc1 [C, 4-((1-hydroxy-1,3-dihydrobenzo[c][1,2]oxaborol-5-yl)methyl)benzonitrile] |  | 1770 nM
N#Cc1ccc([S+]([O-])c2ccc3c(c2)COB3O)cc1 (stereo not shown) [D, 4-(1-hydroxy-1,3-dihydrobenzo[c][1,2]oxaborol-5-ylsulfinyl)benzonitrile] |  | 62 nM
N#Cc1ccc(C(O)c2ccc3c(c2)COB3O)cc1 (stereo not shown) [B, 4-(hydroxy(1-hydroxy-1,3-dihydrobenzo[c][1,2]oxaborol-5-yl)methyl)benzonitrile] |  | 1730 nM
